Test results as given in ChEMBL document CHEMBL1135234, “2-Arylindoles as gonadotropin releasing hormone (GnRH) antagonists: optimization of the tryptamine side chain” (Bioorg Med Chem Lett, 2002).
Where “and” joins values, the source holds several entries; their conditions need not be identical. Equal values may be shown once.

Key:
Cytochrome P450 3A4 [1] = biological target: T1, Cytochrome P450 3A4 (Homo sapiens, UniProt P08684); test: Inhibition of cytochrome P450 3A4 enzyme; Range 1-2 uM; type: ADME
[2] = biological target: T2, Gonadotropin-releasing hormone receptor (Homo sapiens, UniProt P30968); test: Inhibition of gonadotropin-releasing hormone receptor-stimulated [3H]inositol phosphate hydrolysis; type: functional
T2 sequence (P30968 whole entry): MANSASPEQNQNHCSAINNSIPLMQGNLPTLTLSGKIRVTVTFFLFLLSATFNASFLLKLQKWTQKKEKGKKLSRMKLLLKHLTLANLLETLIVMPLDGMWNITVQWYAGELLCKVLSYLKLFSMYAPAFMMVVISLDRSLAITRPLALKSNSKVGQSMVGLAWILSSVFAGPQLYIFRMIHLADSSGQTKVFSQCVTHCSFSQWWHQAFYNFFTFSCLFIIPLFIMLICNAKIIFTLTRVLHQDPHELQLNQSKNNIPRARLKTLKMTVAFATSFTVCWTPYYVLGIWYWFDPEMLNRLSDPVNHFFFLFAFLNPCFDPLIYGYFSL

[3] = biological target: T2, Gonadotropin-releasing hormone receptor; test: Inhibition of [125I]buserelin binding to human pituitary gonadotropin-releasing hormone receptor
[4] = Half life in dog was determined; type: ADME, organism-based, Canis lupus familiaris; settings: in vivo
Canis familiaris [5] = test: (§1) Oral bioavailability in dog; type: ADME, organism-based, Canis lupus familiaris; settings: in vivo
[6] = Plasma clearance in dog was determined; type: ADME, organism-based, Canis lupus familiaris; settings: read-out: Clp
[7] = as §1; type: ADME, organism-based, Canis lupus familiaris; settings: in vivo
[8] = biological target: T2, Gonadotropin-releasing hormone receptor; test: Compound was evaluated for the inhibition of Gonadotropin-releasing hormone receptor-stimulated [3H]inositol phosphate hydrolysis using functional assay
Canis familiaris [9] = test: Compound was tested for the oral bioavailability in dog; No availability; type: ADME, organism-based, Canis lupus familiaris; settings: in vivo
Cytochrome P450 3A4 [10] = biological target: T1, Cytochrome P450 3A4; test: Inhibition of cytochrome P450 3A4 enzyme

T1 sequence (P08684 whole entry): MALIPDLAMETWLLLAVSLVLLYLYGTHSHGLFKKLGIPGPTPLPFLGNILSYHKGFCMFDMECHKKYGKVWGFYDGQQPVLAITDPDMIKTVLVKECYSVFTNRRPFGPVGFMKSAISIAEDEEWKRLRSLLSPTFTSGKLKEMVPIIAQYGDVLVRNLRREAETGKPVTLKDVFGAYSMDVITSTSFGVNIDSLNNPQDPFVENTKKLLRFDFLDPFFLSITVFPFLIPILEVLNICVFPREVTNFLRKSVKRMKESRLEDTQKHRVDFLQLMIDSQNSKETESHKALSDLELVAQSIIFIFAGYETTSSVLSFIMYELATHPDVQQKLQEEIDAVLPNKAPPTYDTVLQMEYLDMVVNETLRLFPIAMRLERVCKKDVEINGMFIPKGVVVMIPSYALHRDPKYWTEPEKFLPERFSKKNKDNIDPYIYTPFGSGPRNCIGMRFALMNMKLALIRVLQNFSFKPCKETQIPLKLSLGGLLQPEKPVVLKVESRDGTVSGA

In the case of `Cc1cc(C)cc(-c2[nH]c3ccc(C(C)(C)C(=O)N4CC5CCC4CC5)cc3c2[C@H](C)CNCCc2ccc3nsnc3c2)c1`, the IC50 (Cytochrome P450 3A4 [1]) is reported as 1000 nM, the IC50 [2] is reported as 11.4 nM and the IC50 [3] is reported as 0.5 nM.
For `Cc1cc(C)cc(-c2[nH]c3ccc(C(C)(C)C(=O)N4C5CCC4CC5)cc3c2[C@H](C)CNCCCCc2ccncc2)c1`, the half-life [4] was 9.5 h, the F (Canis familiaris [5]) was 23% and 11% and the clearance [6] was 26.5 mL/min/kg.
In the case of `Cc1cc(C)cc(-c2[nH]c3ccc(C(C)(C)C(=O)N4C5CCC4CC5)cc3c2[C@H](C)CNCCCCc2cncc3ccccc23)c1`, the IC50 [2] is reported as 10.2 nM and the IC50 [3] is reported as 2.1 nM.
With `Cc1cc(C)cc(-c2[nH]c3ccc(C(C)(C)C(=O)N4C5CCC4CC5)cc3c2[C@H](C)CNCCc2ccc3[nH]nnc3c2)c1` the half-life [4] was 2.7 h, the bioavailability [7] was 37% and the clearance [6] was 37 mL/min/kg. For the same compound, the IC50 [2] was 2 nM and the IC50 [3] was 0.6 nM.
`Cc1cc(C)cc(-c2[nH]c3ccc(C(C)(C)C(=O)N4CC5CCC4CC5)cc3c2[C@H](C)CNCCc2cnc3nn[nH]c3c2)c1` showed an IC50 [2] of 2.8 nM and an IC50 [3] of 0.6 nM.
In the case of `Cc1cc(C)cc(-c2[nH]c3ccc(C(C)(C)C(=O)N4C5CCC4CC5)cc3c2[C@H](C)CNCc2cccc3ncccc23)c1` (stereo in doubt; 27a), the IC50 [2] is reported as 420 nM and the IC50 [3] is reported as 27.5 nM.
Work on `Cc1cc(C)cc(-c2[nH]c3ccc(C(C)(C)C(=O)N4CC5CCC4CC5)cc3c2[C@H](C)CNCCc2ccc3[nH]c(=O)[nH]c3c2)c1` yielded a bioavailability [7] of 5%, an IC50 [8] of 2 nM and an IC50 [3] of 0.6 nM.
For `Cc1cc(C)cc(-c2[nH]c3ccc(C(C)(C)C(=O)N4C5CCC4CC5)cc3c2[C@H](C)CNCCCc2cccc3cnccc23)c1`, the IC50 [2] was 5 nM and the IC50 [3] was 0.9 nM.
`Cc1cc(C)cc(-c2[nH]c3ccc(C(C)(C)C(=O)N4C5CCC4CC5)cc3c2[C@H](C)CNCCCCc2ccc3ncccc3c2)c1` gave an IC50 [2] of 11.5 nM and an IC50 [3] of 1.1 nM.
For `Cc1cc(C)cc(-c2[nH]c3ccc(C(C)(C)C(=O)N4CC5CCC4CC5)cc3c2[C@H](C)CNCCc2ccc3nc(C(=O)O)[nH]c3c2)c1`, the F (Canis familiaris [9]) was “Not Active”, the clearance [6] was 24.6 mL/min/kg and the IC50 [2] was 6.5 nM. It also gave an IC50 [3] of 0.4 nM.
Compound `Cc1cc(C)cc(-c2[nH]c3ccc(C(C)(C)C(=O)N4C5CCC4CC5)cc3c2[C@H](C)CNCCCCc2ccnc3nc(C)ccc23)c1` has an IC50 [2] of 8.4 nM and an IC50 [3] of 0.6 nM.
In the case of `Cc1cc(C)cc(-c2[nH]c3ccc(C(C)(C)C(=O)N4CC5CCC4CC5)cc3c2[C@H](C)CNCCc2ccc3[nH]c(=O)[nH]c3c2F)c1`, the IC50 [2] is reported as 27.9 nM and the IC50 [3] is reported as 0.7 nM.
For `Cc1cc(C)cc(-c2[nH]c3ccc(C(C)(C)C(=O)N4C5CCC4CC5)cc3c2[C@H](C)CNCCCc2ccc3ncccc3c2)c1`, the IC50 [2] was 17.8 nM and the IC50 [3] was 3 nM.
With `Cc1cc(C)cc(-c2[nH]c3ccc(C(C)(C)C(=O)N4C5CCC4CC5)cc3c2[C@H](C)CNCCCc2ccnc3nc(C)ccc23)c1` the IC50 [2] was 16.2 nM and the IC50 [3] was 1.1 nM.
Work on `Cc1cc(C)cc(-c2[nH]c3ccc(C(C)(C)C(=O)N4C5CCC4CC5)cc3c2[C@H](C)CNCCCCc2cccc3ncccc23)c1` yielded an IC50 [2] of 46.4 nM and an IC50 [3] of 1.9 nM.
With `Cc1cc(C)cc(-c2[nH]c3ccc(C(C)(C)C(=O)N4C5CCC4CC5)cc3c2[C@H](C)CNCCCCc2cnc3nccnc3c2)c1` the IC50 [2] was 7.9 nM and the IC50 [3] was 0.4 nM.
In the case of `Cc1cc(C)cc(-c2[nH]c3ccc(C(C)(C)C(=O)N4C5CCC4CC5)cc3c2[C@H](C)CNCCCc2ccc3cnccc3c2)c1`, the IC50 [2] is reported as 4.6 nM and the IC50 [3] is reported as 0.7 nM.
`Cc1cc(C)cc(-c2[nH]c3ccc(C(C)(C)C(=O)N4CC5CCC4CC5)cc3c2[C@H](C)CNCCc2ccc3[nH]c(C(F)(F)F)nc3c2)c1` gave an IC50 (Cytochrome P450 3A4 [10]) of over 10000 nM, an IC50 [2] of 101 nM and an IC50 [3] of 0.9 nM.
`COC(=O)c1nc2ccc(CCNC[C@@H](C)c3c(-c4cc(C)cc(C)c4)[nH]c4ccc(C(C)(C)C(=O)N5CC6CCC5CC6)cc34)cc2[nH]1` gave an IC50 [2] of 7.6 nM and an IC50 [3] of 0.3 nM.
Compound `Cc1cc(C)cc(-c2[nH]c3ccc(C(C)(C)C(=O)N4C5CCC4CC5)cc3c2[C@H](C)CNCCc2c[nH]c3ncnc-3c2)c1` has an IC50 [2] of 2.5 nM and an IC50 [3] of 0.4 nM.
`Cc1cc(C)cc(-c2[nH]c3ccc(C(C)(C)C(=O)N4C5CCC4CC5)cc3c2[C@H](C)CNCCc2ccc3ncoc3c2)c1` showed an IC50 (Cytochrome P450 3A4 [1]) of 1000 nM, an IC50 [2] of 2 nM and an IC50 [3] of 0.4 nM.
With `Cc1cc(C)cc(-c2[nH]c3ccc(C(C)(C)C(=O)N4CC5CCC4CC5)cc3c2[C@H](C)CNCCc2ccc3nn[nH]c3c2)c1` the half-life [4] was 7.2 h, the bioavailability [7] was 20% and the clearance [6] was 5 mL/min/kg. The IC50 [2] was 2.5 nM and the IC50 [3] was 0.3 nM.
Compound `Cc1cc(C)cc(-c2[nH]c3ccc(C(C)(C)C(=O)N4CC5CCC4CC5)cc3c2[C@H](C)CNCc2ccc3nc[nH]c3c2)c1` has an IC50 [2] of 43.9 nM and an IC50 [3] of 16.5 nM.
Work on `Cc1cc(C)cc(-c2[nH]c3ccc(C(C)(C)C(=O)N4C5CCC4CC5)cc3c2[C@H](C)CNCCCc2cccc3ncccc23)c1` yielded an IC50 [2] of 131 nM and an IC50 [3] of 2.4 nM.
`Cc1cc(C)cc(-c2[nH]c3ccc(C(C)(C)C(=O)N4C5CCC4CC5)cc3c2[C@H](C)CNCCc2ccc3ocnc3c2)c1` showed an IC50 [2] of 9 nM and an IC50 [3] of 0.3 nM.
`Cc1cc(C)cc(-c2[nH]c3ccc(C(C)(C)C(=O)N4CC5CCC4CC5)cc3c2[C@H](C)CNCCc2ccc3[nH]ncc3c2)c1` gave an IC50 [2] of 1.5 nM and an IC50 [3] of 1.1 nM.
`Cc1cc(C)cc(-c2[nH]c3ccc(C(C)(C)C(=O)N4CC5CCC4CC5)cc3c2[C@H](C)CNCCc2ccc3[nH]c(CO)nc3c2)c1` gave an IC50 [2] of 5 nM and an IC50 [3] of 0.7 nM.
`Cc1cc(C)cc(-c2[nH]c3ccc(C(C)(C)C(=O)N4C5CCC4CC5)cc3c2[C@H](C)CNCCc2ccc3[nH]c(C)nc3c2)c1` gave an IC50 (Cytochrome P450 3A4 [10]) of 5000 nM, an IC50 [2] of 13 nM and an IC50 [3] of 0.4 nM.
In the case of `Cc1cc(C)cc(-c2[nH]c3ccc(C(C)(C)C(=O)N4C5CCC4CC5)cc3c2[C@H](C)CNCCCCc2cnc3nc[nH]c3c2)c1`, the IC50 [2] is reported as 4.6 nM and the IC50 [3] is reported as 0.4 nM.
Work on `Cc1cc(C)cc(-c2[nH]c3ccc(C(C)(C)C(=O)N4C5CCC4CC5)cc3c2[C@H](C)CNCCc2ccc3nc[nH]c3c2)c1` yielded an IC50 [2] of 2.6 nM and an IC50 [3] of 0.4 nM.
Work on `Cc1cc(C)cc(-c2[nH]c3ccc(C(C)(C)C(=O)N4C5CCC4CC5)cc3c2[C@H](C)CNCc2cccc3ncccc23)c1` (stereo in doubt; 27b) yielded an IC50 [2] of 315 nM and an IC50 [3] of 15.3 nM.
`Cc1cc(C)cc(-c2[nH]c3ccc(C(C)(C)C(=O)N4C5CCC4CC5)cc3c2[C@H](C)CNCCCCc2cccc3cnccc23)c1` showed a half-life [4] of 1 h, a bioavailability [7] of 4% and a clearance [6] of 49.2 mL/min/kg. For the same compound, the IC50 [2] was 6.8 nM and the IC50 [3] was 1.5 nM.
`Cc1cc(C)cc(-c2[nH]c3ccc(C(C)(C)C(=O)N4C5CCC4CC5)cc3c2[C@H](C)CNCCCc2cncc3ccccc23)c1` gave an IC50 [2] of 7.5 nM and an IC50 [3] of 2.1 nM.
`Cc1cc(C)cc(-c2[nH]c3ccc(C(C)(C)C(=O)N4CC5CCC4CC5)cc3c2[C@H](C)CNCCc2ccc3ncoc3c2)c1` gave an IC50 [2] of 3.9 nM and an IC50 [3] of 0.6 nM.
`Cc1cc(C)cc(-c2[nH]c3ccc(C(C)(C)C(=O)N4C5CCC4CC5)cc3c2[C@H](C)CNCCCc2cnc3nccnc3c2)c1` gave an IC50 [2] of 10.9 nM and an IC50 [3] of 0.8 nM.
Work on `Cc1cc(C)cc(-c2[nH]c3ccc(C(C)(C)C(=O)N4C5CCC4CC5)cc3c2[C@H](C)CNCCc2cccc3cnccc23)c1` yielded a half-life [4] of 1.9 h, a bioavailability [7] of 10% and a clearance [6] of 5.8 mL/min/kg. It also gave an IC50 (Cytochrome P450 3A4 [1]) of 1000 nM, an IC50 [2] of 34.7 nM and an IC50 [3] of 0.6 nM.
With `Cc1cc(C)cc(-c2[nH]c3ccc(C(C)(C)C(=O)N4CC5CCC4CC5)cc3c2[C@H](C)CNCCc2c[nH]c3ncnc-3c2)c1` the bioavailability [7] was 16%, the IC50 (Cytochrome P450 3A4 [10]) was 4000 nM and the IC50 [2] was 4.5 nM. For the same compound, the IC50 [3] was 0.3 nM.
`Cc1cc(C)cc(-c2[nH]c3ccc(C(C)(C)C(=O)N4CC5CCC4CC5)cc3c2[C@H](C)CNCCc2ccc3nc[nH]c3c2)c1` showed a bioavailability [7] of 63%, an IC50 (Cytochrome P450 3A4 [10]) of 100 nM and an IC50 [2] of 4.5 nM. It also gave an IC50 [3] of 0.3 nM.
`Cc1cc(C)cc(-c2[nH]c3ccc(C(C)(C)C(=O)N4C5CCC4CC5)cc3c2[C@H](C)CNCCCCc2ccc3cnccc3c2)c1` showed an IC50 [2] of 5.8 nM and an IC50 [3] of 3.6 nM.
